Among the data in patent publication US8618285B2, “Triazole derivatives” (Merck Patent GmbH, priority 2005, dated 2013) are IC50 values, retold here.

The target in the experiment is T1, Recombinant human HSP90α (Homo sapiens, UniProt P07900).
T1 construct: host or cells: E. coli
The experiment in a line: radioligand filter binding test, competitive inhibition of [3H]17AAG binding to HSP90. To be noted: [3H]17AAG 0.08 μM, HSP90 1.5 μg/assay, 22° C., 30 min. An excerpt: The binding of geldanamycin or 17-allylamino-17-demethoxygeldanamycin (17AAG) to HSP90 and competitive inhibition thereof can be utilised in order to determine the inhibitory activity of the compounds according to the invention (Carreras et al. 2003, Chiosis et al. 2002).
In the specific case, a radioligand filter binding test is used. The radio-ligand used here is tritium-labelled 17-allylaminogeldanamycin, [3H]17AAG. This filter binding test allows a targeted search for inhibitors which interfere with the ATP binding site. Material
Recombinant human HSP90α (E. coli expressed, 95% purity); [3H]17AAG (17-allylaminogeldanamycin, [allylamino-2,3-^3H. Specific activity: 1.11×10^12 Bq/mmol (Moravek, MT-1717);
HEPES filter buffer (50 mM HEPES, pH 7.0, 5 mM MgCl2, BSA 0.01%) Multiscreen FB (1 μm) filter plate (Millipore, MAFBNOB 50).
The 96-well microtitre filter plates are firstly irrigated and coated with 0.1% of polyethylenimine.
The test is carried out under the following conditions: • Reaction temperature 22° C. • Reaction time: 30 min., shaking at 800 rpm • Test volume: 50 μl • Final concentrations: • 50 mM HEPES HCl, pH 7.0, 5 mM MgCl2, 0.01% (w/v) BSA • HSP90: 1.5 μg/assay • [3H]17AAG: 0.08 μM.
At the end of the reaction, the supernatant in the filter plate is removed by suction with the aid of a vacuum manifold (Multiscreen Separation System, Millipore), and the filter is washed twice.
The filter plates are then measured in a beta counter (Microbeta, Wallac) with scintillator (Microscint 20, Packard).
“% of control” is determined from the “counts per minutes” values and the IC50 value of a compound is calculated therefrom.
In the case of `CCCCN(C)S(=O)(=O)c1cc(-c2nnc(O)n2-c2ccccc2Cl)c(O)cc1O` [A26, 5-[2,4-dihydroxy-5-(N-butyl-N-methylsulfamoyl)phenyl]-4-(2-chloro-phenyl)-3-hydroxy-4H-1,2,4-triazole], the IC50 is 120 nM.
Consider `CCCN(C)S(=O)(=O)c1cc(-c2nnc(O)n2-c2ccccc2Cl)c(O)cc1O` [A28, 5-[2,4-dihydroxy-5-(N-propyl-N-methylsulfamoyl)phenyl]-4-(2-chloro-phenyl)-3-hydroxy-4H-1,2,4-triazole], for which the IC50 was found to be 160 nM.
Turning to `CN(Cc1ccccc1)S(=O)(=O)c1cc(-c2nnc(O)n2-c2ccccc2Cl)c(O)cc1O` [A32, 5-[2,4-dihydroxy-5-(N-benzyl-N-methylsulfamoyl)phenyl]-4-(2-chloro-phenyl)-3-hydroxy-4H-1,2,4-triazole], the IC50 was found to be 140 nM.
Consider `CCCN(C)S(=O)(=O)c1cc(-c2nnc(O)n2-c2ccccc2CC)c(O)cc1O` [A34, 5-[2,4-dihydroxy-5-(N-propyl-N-methylsulfamoyl)phenyl]-4-(2-ethyl-phenyl)-3-hydroxy-4H-1,2,4-triazole], for which the IC50 worked out at 80 nM.
To `CCCN(C)S(=O)(=O)c1cc(-c2nnc(O)n2-c2cccc(Cl)c2)c(O)cc1O` [A38, 5-[2,4-dihydroxy-5-(N-propyl-N-methylsulfamoyl)phenyl]-4-(3-chloro-phenyl)-3-hydroxy-4H-1,2,4-triazole] belongs 330 nM; to `CCCN(C)S(=O)(=O)c1cc(-c2nnc(O)n2-c2cccc(F)c2)c(O)cc1O` [A39, 5-[2,4-dihydroxy-5-(N-propyl-N-methylsulfamoyl)phenyl]-4-(3-fluoro-phenyl)-3-hydroxy-4H-1,2,4-triazole], 180 nM; to `CCCN(C)S(=O)(=O)c1cc(-c2nnc(O)n2-c2ccccc2C)c(O)cc1O` [A40, 5-[2,4-dihydroxy-5-(N-propyl-N-methylsulfamoyl)phenyl]-4-(2-methyl-phenyl)-3-hydroxy-4H-1,2,4-triazole], 140 nM.
